In patent US9540392B2, “Thienopyrimidines” (BAYER PHARMA AKTIENGESELLSCHAFT, priority 2012, dated 2017):

The compounds below were run against T1, human full-length MKNK1 (Homo sapiens, UniProt Q9BUB5, T385D) (assay: MKNK1 kinase high ATP assay (TR-FRET)). Details: 2 mM ATP, after preincubation with MKNK1; read-out: MKNK1 IC50 (MKNK1 high ATP).
T1 construct: GST (N); purchased Carna Biosciences 02-145; host or cells: insect cells (baculovirus expression system)
Assay type: biochemical
Method: MKNK1-inhibitory activity at high ATP of compounds of the present invention after their preincubation with MKNK1 was quantified employing the TR-FRET-based MKNK1 high ATP assay as described in the following paragraphs.
As substrate for the kinase reaction the biotinylated peptide biotin-Ahx-[…] (C-terminus in amide form) was used, which can be purchased e.g. from the company Biosyntan (Berlin-Buch, Germany).
For the assay 50 nL of a 100 fold concentrated solution of the test compound in DMSO was pipetted into a black low volume 384 well microtiter plate (Greiner Bio-One, Frickenhausen, Germany), 2 μL of a solution of MKNK1 in aqueous assay buffer [50 mM HEPES pH 7.5, 5 mM MgCl2, 1.0 mM dithiothreitol, 0.005% (v/v) Nonidet-P40 (Sigma)] was added and the mixture was incubated for 15 min at 22° C. to allow pre-binding of the test compounds to the enzyme before the start of the kinase reaction. Then the kinase reaction was started by the addition of 3 μL of a solution of adenosine-tri-phosphate (ATP, 3.3 mM=>final conc. in the 5 μL assay volume is 2 mM) and substrate (0.1 μM=>final conc. in the 5 μL assay volume is 0.06 μM) in assay buffer and the resulting mixture was incubated for a reaction time of 30 min at 22° C. The concentration of MKNK1 was adjusted depending of the activity of the enzyme lot and was chosen appropriate to have the assay in the linear range, typical concentrations were in the range of 0.003 μg/mL. The reaction was stopped by the addition of 5 μL of a solution of TR-FRET detection reagents (5 nM streptavidine-XL665 [Cisbio Bioassays, Codolet, France] and 1 nM anti-ribosomal protein S6 (pSer236)-antibody from Invitrogen [#44921G] and 1 nM LANCE EU-W1024 Labeled ProteinG [Perkin-Elmer, product no. AD0071]) in an aqueous EDTA-solution (100 mM EDTA, 0.1% (w/v) bovine serum albumin in 50 mM HEPES pH 7.5).
The resulting mixture was incubated for 1 h at 22° C. to allow the formation of complex between the phosphorylated biotinylated peptide and the detection reagents. Subsequently the amount of phosphorylated substrate was evaluated by measurement of the resonance energy transfer from the Eu-chelate to the streptavidine-XL. Therefore, the fluorescence emissions at 620 nm and 665 nm after excitation at 350 nm were measured in a TR-FRET reader, e.g. a Rubystar (BMG Labtechnologies, Offenburg, Germany) or a Viewlux (Perkin-Elmer). The ratio of the emissions at 665 nm and at 622 nm was taken as the measure for the amount of phosphorylated substrate.

T1 sequence (Q9BUB5 1-424 isoform Q9BUB5-2 T344D): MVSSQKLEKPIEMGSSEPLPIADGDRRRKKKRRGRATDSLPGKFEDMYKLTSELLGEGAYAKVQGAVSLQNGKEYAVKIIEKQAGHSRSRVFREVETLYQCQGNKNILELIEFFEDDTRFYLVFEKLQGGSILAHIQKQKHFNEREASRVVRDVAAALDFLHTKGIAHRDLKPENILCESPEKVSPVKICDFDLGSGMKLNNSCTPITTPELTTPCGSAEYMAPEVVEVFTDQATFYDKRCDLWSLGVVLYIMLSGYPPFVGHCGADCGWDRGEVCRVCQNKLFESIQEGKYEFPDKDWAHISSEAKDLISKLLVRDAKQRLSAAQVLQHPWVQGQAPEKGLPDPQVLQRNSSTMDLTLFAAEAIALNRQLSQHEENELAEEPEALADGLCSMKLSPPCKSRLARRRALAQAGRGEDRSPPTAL

Compound	IC50
COc1cc2[nH]ncc2cc1Nc1ncnc2sc3c(c12)CCC(C(=O)N1[C@H](C)CC[C@H]1C)C3 (mixture of isomers) [Example 178, [(2R,5R)-2,5-Dimethylpyrrolidin-1-yl]{(7RS)-4-[(6-methoxy-1H-indazol-5-yl)amino]-5,6,7,8-tetrahydro[1]benzothieno[2,3-d]pyrimidin-7-yl}methanone]	0.2 nM
CCOc1cc2[nH]ncc2cc1Nc1ncnc2sc3c(c12)CCC(C(=O)N1CC[C@H](O)C1)C3 (mixture of isomers) [Example 246, {(7RS)-4-[(6-Ethoxy-1H-indazol-5-yl)amino]-5,6,7,8-tetrahydro[1]benzothieno[2,3-d]pyrimidin-7-yl}[(3S)-3-hydroxypyrrolidin-1-yl]methanone]	0.9 nM
CCOC(=O)C1CCc2c(sc3ncnc(Nc4ccc5[nH]ncc5c4C)c23)C1 (racemic) [Example 60, (RS)-Ethyl 4-[(4-methyl-1H-indazol-5-yl)amino]-5,6,7,8-tetrahydro[1]benzothieno[2,3-d]pyrimidine-7-carboxylate]	2180 nM
Cc1n[nH]c2ccc(Nc3ncnc4sc5c(c34)CCC(C(=O)O)C5)cc12 (racemic) [Example 62, (RS)-4-[(3-Methyl-1H-indazol-5-yl)amino]-5,6,7,8-tetrahydro[1]benzothieno[2,3-d]pyrimidine-7-carboxylic acid]	1420 nM
CC(C)NC(=O)C1CCc2c(sc3ncnc(Nc4cc5cn[nH]c5cc4F)c23)C1 (racemic) [Example 63, (RS)-4-[(6-Fluoro-1H-indazol-5-yl)amino]-N-(propan-2-yl)-5,6,7,8-tetrahydro[1]benzothieno[2,3-d]pyrimidine-7-carboxamide]	10.2 nM

Continued by falling IC50, values first:

IC50	Compound
1020 nM	CCOC(=O)C1CCc2c(sc3ncnc(Nc4ccc5[nH]nc(C)c5c4)c23)C1 (racemic) [Example 61, (RS)-Ethyl 4-[(3-methyl-1H-indazol-5-yl)amino]-5,6,7,8-tetrahydro[1]benzothieno[2,3-d]pyrimidine-7-carboxylate]
6.1 nM	COc1cc2[nH]ncc2cc1Nc1ncnc2sc3c(c12)CCC(C(=O)N1CC2CC1CO2)C3 (mixture of isomers) [Example 262, {(7RS)-4-[(6-Methoxy-1H-indazol-5-yl)amino]-5,6,7,8-tetrahydro[1]benzothieno[2,3-d]pyrimidin-7-yl}[(1S,4S)-2-oxa-5-azabicyclo[2.2.1]hept-5-yl]methanone]
0.6 nM	CC(C)Oc1cc2[nH]ncc2cc1Nc1ncnc2sc3c(c12)CCC(C(=O)N1[C@H](C)CC[C@H]1C)C3 (mixture of isomers) [Example 227, [(2R,5R)-2,5-Dimethylpyrrolidin-1-yl]{(7RS)-4-[(6-isopropoxy-1H-indazol-5-yl)amino]-5,6,7,8-tetrahydro[1]benzothieno[2,3-d]pyrimidin-7-yl}methanone]
0.5 nM	CCOc1cc2[nH]ncc2cc1Nc1ncnc2sc3c(c12)CCC(C(=O)N1CC[C@@H](O)C1)C3 (mixture of isomers) [Example 233, {(7RS)-4-[(6-Ethoxy-1H-indazol-5-yl)amino]-5,6,7,8-tetrahydro[1]benzothieno[2,3-d]pyrimidin-7-yl}[(3R)-3-hydroxypyrrolidin-1-yl]methanone]
0.4 nM	COc1cc2[nH]ncc2cc1Nc1ncnc2sc3c(c12)CCC(C(=O)N1C[C@H](O)[C@@H](O)C1)C3 (mixture of isomers) [Example 244, [(3R,4R)-3,4-Dihydroxypyrrolidin-1-yl]{(7RS)-4-[(6-methoxy-1H-indazol-5-yl)amino]-5,6,7,8-tetrahydro[1]benzothieno[2,3-d]pyrimidin-7-yl}methanone]
0.3 nM	COc1cc2[nH]ncc2cc1Nc1ncnc2sc3c(c12)CCC(C(=O)N1C[C@@H](O)[C@H](O)C1)C3 (mixture of isomers) [Example 243, [(3R,4R)-3,4-Dihydroxypyrrolidin-1-yl]{(7RS)-4-[(6-methoxy-1H-indazol-5-yl)amino]-5,6,7,8-tetrahydro[1]benzothieno[2,3-d]pyrimidin-7-yl}methanone]
